Results published in patent publication US20150209316A1, “AGENT FOR ENHANCING IMMUNITY CONTAINING GLUTATHIONE” (KYOWA HAKKO BIO CO., LTD., priority 2012, published 2015).

Assays:
lymphocyte [1] = conditions: by administering 2-ME; cited from earlier work
lymphocytes = conditions: after 3 months, both GSH groups (250 and 1000 mg/day oral), dose dependent
Procedure: The design included the recruitment of healthy subjects (28-79 yr. of age, mean=46.6 years) randomized into 3 groups (GSH at 1000 mg/day, GSH at 250 mg/day, and placebo). […] Blood samples were obtained from all subjects at baseline. Subjects began supplementation according to the following schedule: Glutathione capsules were provided by the sponsor, Kyowa Hakko USA. Capsules were formulated, and subjects began supplementation according to the following schedule as follows: • Group A, GSH: 500 mg/capsule and cellulose: 15 mg/capsule, (2 pills daily); • Group B, GSH: 125 mg/capsule and cellulose: 360 mg/capsule, (2 pills daily); • Group C (placebo), cellulose: 470 mg/capsule, (2 pills daily). […]
(§1) Blood samples were collected from an antecubital vein into 3 tubes containing sodium heparin as an anticoagulant and immediately placed on ice. […] Cell number was assessed after addition of 40 μl trypan blue to 10 μl of cell suspension using a hemocytometer. […]
Lymphocyte Proliferation—Lymphocyte samples from each of the 5 time points (0, 1, 3, 6, and 7 months) were thawed, washed 3 times and counted to determine cell viability. […] Cell proliferation was monitored by 3H-thymidine incorporation. Intracellular radioactivity was measured by liquid scintillation counting and results were expressed as cpm.

human K562 cells = conditions: after 3 months
Procedure: The design included the recruitment of healthy subjects (28-79 yr. of age, mean=46.6 years) randomized into 3 groups (GSH at 1000 mg/day, GSH at 250 mg/day, and placebo). […] Blood samples were obtained from all subjects at baseline. […] Capsules were formulated, and subjects began supplementation according to the following schedule as follows: • Group A, GSH: 500 mg/capsule and cellulose: 15 mg/capsule, (2 pills daily); • Group B, GSH: 125 mg/capsule and cellulose: 360 mg/capsule, (2 pills daily); • Group C (placebo), cellulose: 470 mg/capsule, (2 pills daily).
Eligible participants were randomly assigned to either placebo (Group C) or high (Group A) or low (Group B) dose glutathione groups. […]
as §1
NK Cell Cytotoxicity—NK cell cytotoxicity was assessed using human K562 cells, labeled with sodium ^51chromate as target cell. […] Lymphocyte samples from each of the five time points were thawed, washed 3 times, counted to determine cell viability and added in triplicate to the wells at an effector:target cell ratio of 10:1. After incubation for 4 hr. at 37° C., cells were collected and supernatant analyzed for radioactivity by gamma counting. […]

[2] = test system: murine-derived splenic lymphocytes; conditions: in vitro; cited from earlier work
[3] = test system: murine-derived splenic lymphocytes; conditions: in vitro; cited from earlier work; remark: listed apart in the source
[4] = oral administration to a human; cited from earlier work
lymphocyte [5] = conditions: oral administration to a human; cited from earlier work
NK cell = conditions: oral administration to a human; cited from earlier work

## OCCS [2-melcaptoethanol]
Lymphocyte [1]
  lymphocyte proliferation: lymphocyte proliferation action

## N[C@@H](CCC(=O)N[C@@H](CS)C(=O)NCC(=O)O)C(=O)O [GSH, γ-L-Glu-L-Cys-Gly]
Group A, 1000 mg/day oral, 1 and 6 months, chi-square test
  glutathione concentration in lymphocytes compared to placebo group (Group C): significant difference (p<0.05)
High dose GSH group (1000 mg/day oral), after 6 months
  maximum increase of lymphocyte total glutathione: about 30%
High dose group (1.0 g/day oral), 1, 3, 6 months
  time course of lymphocyte glutathione levels: levels progressively increasing from 1 to 3 to 6 months of administration
lymphocytes
  mean proliferative capacity of lymphocytes (3H-thymidine, cpm): Increases in mean proliferative capacity were observed
Human K562 cells; both GSH groups (250 and 1000 mg/day oral), dose dependent, effector:target 10:1
  mean % lysis values (NK cell cytotoxicity): Increases in mean % lysis values were observed
Human K562 cells; high GSH dose arm 1000 mg/day, Ppaired=0.01
  significance of increase in % lysis versus baseline: only significant in the high GSH dose arm
[2]
  Con A induced lymphocyte proliferation activity: increased in a GSH concentration dependent fashion
[3]
  NK cell cytotoxic activity: increased in a GSH concentration dependent fashion

## CC(=O)N[C@@H](CS)C(=O)O [N-acetylcysteine]
[4]
  glutathione concentration in immune cells: increased
Lymphocyte [5]
  PHA stimulated lymphocyte proliferation: increased
NK cell
  NK cell cytotoxic activity: increased
